How the values were obtained:
CCI-SN rats = assay: Paw pressure (Randall-Selitto) test in CCI-SN rats; format: in vivo, rat; details: 10 mg/kg i.p.
Protocol: Male Sprague-Dawley rats (Charles River Laboratories, L'Arbresle, France), weighing 150-200 g on arrival, were used. Animals were maintained under controlled environmental conditions (22±1° C., 60% relative humidity, 12 h/12 h light/dark cycle, food and water ad libitum) starting from reception in the laboratory, for at least 1 week before any intervention or treatment and thereafter, until euthanasia.
Rats were anaesthetized as above and the common sciatic nerve was exposed. Using a dissection microscope (2× magnification), four chromic catgut (5-0) ligations were tied loosely with about 1 mm spacing, proximally to the sciatic trifurcation (Bennett and Xie, 1988). Finally, the skin and muscle were sewed using silk sutures (4-0). In sham-operated animals, the same surgery was performed, but the nerve was not ligated.
Tapentadol (1, 3 and 10 mg/kg i.p.), reboxetine (10 mg/kg i.p.), morphine (1 and 3 mg/kg s.c.) or their vehicle (0.9% NaCl) were injected acutely 14 days after surgery, when allodynia/hyperalgesia reached a plateau in both CCI-SN and CCI-ION rats. Behavioral tests were performed at various times for up to 4 h after injection. In drug association procedure, reboxetine or saline was administered 15 min before morphine or saline.

[1] = tested on: mRNA encoding ATF3, IL-6 and BDNF; assay: Real time qRT-PCR of mRNA in DRG and lumbar spinal cord of CCI-SN rats; format: in vivo, rat; details: subchronic 10 mg/kg i.p. twice daily; ipsilateral L4-L6 DRG and dorsal quadrant of lumbar enlargement; 4 h after last injection
Protocol: Subchronic treatment consisted of twice daily injections of tapentadol (10 mg/kg, i.p. at 10:00 am and 6:00 pm) or saline for 4 days starting on the 15th day after nerve ligation in both CCI-ION and CCI-SN rats. Animals were further injected with tapentadol (10 mg/kg i.p.) or saline at 10:00 am the following day (19th day post-surgery), and assessment of allodynia with von Frey filament tests (see below) was made at various times up to 4 hours after this injection. All rats were killed by decapitation 4 hours after the last injection for real-time qRT-PCR determinations of specific mRNAs in ganglia and central tissues (see below).
Animals used for qRT-PCR procedure were decapitated immediately after performance of von Frey filament test four hours after the last injection of tapentadol or saline for subchronic treatment conditions (see above). […]
First-stranded cDNA synthesis (from 660 ng total RNA per 20 μl reaction mixture) was carried out using SuperScript™ III Reverse Transcriptase and random primers (250 ng per reaction), as recommended by the manufacturer (Invitrogen, Cergy Pontoise, France). […] Semi-quantitative determinations were made with reference to the reporter gene encoding glyceraldehyde 3-phosphate dehydrogenase (GaPDH; Rn99999916_sl). […] Specific mRNA levels were calculated after normalizing from GaDPH mRNA in each sample (Latrémolière et al., 2008). […]

## CC[C@@H](c1cccc(O)c1)[C@@H](C)CN(C)C [Tapentadol, (−)-(1R,2R)-3-(3-dimethylamino-1-ethyl-2-methyl-propyl)-phenol]
CCI-SN rats
  duration of increase in pressure threshold values: at least 60 min
CCI-SN rats; first 45 min after administration
  pressure threshold values to trigger vocalization, vs untreated healthy rats: +20%
CCI-SN rats; first hour after treatment, vs intact healthy rats
  pressure threshold values to cause hindpaw withdrawal: did not significantly differ from those determined in intact healthy rats
[1]
  levels of mRNA encoding ATF3, IL-6 and BDNF, tapentadol vs saline: not significantly different
